This note sets out measurements from ChEMBL document CHEMBL3576857, “Biosynthetic products from a nearshore-derived gram-negative bacterium enable reassessment of the kailuin depsipeptides” (J Nat Prod, 2015).

Active and inactive are the calls of the source. The rule behind the calls is not given here.

Holding throughout (format): functional, cell-based
In one assay the test system is HCT-116. The assay can be described thus: Cytotoxicity against human HCT116 cells.
The test system of another assay is MCF7. Kind of assay: Cytotoxicity against human MCF7 cells.
For another assay, the system named is HeLa. Kind of assay: Cytotoxicity against human HeLa cells assessed as effect on phenotypic features by automated microscopy and image analysis.

A word on the IC50: it is the concentration needed to halve the response being measured. `CC[C@H](C)[C@@H]1NC(=O)[C@@H](CC(C)C)NC(=O)[C@H]([C@@H](C)O)NC(=O)[C@H](CO)NC(=O)[C@@H](CC(C)C)NC(=O)C[C@@H](CCCCCCC(C)C)OC1=O`: the IC50 in the assay on HCT-116 was found to be 50 µM; in the assay with MCF7 it was 6 µM.

In the assay on HCT-116, `CC[C@H](C)[C@@H]1NC(=O)[C@@H](CC(C)C)NC(=O)[C@H]([C@@H](C)O)NC(=O)[C@H](CO)NC(=O)[C@@H](CC(C)C)NC(=O)CCC(=O)C1=O` showed an IC50 above 1000 µM. The same measure, in the same setting: in the case of `CC[C@H](C)[C@@H]1NC(=O)[C@@H](CC(C)C)NC(=O)[C@H]([C@@H](C)O)NC(=O)[C@H](CO)NC(=O)[C@@H](CC(C)C)NC(=O)C[C@@H](CCCCCCCCC(C)C)OC1=O` it was 17 µM.

`CCCCCCCCCCC[C@@H]1CC(=O)N[C@H](CC(C)C)C(=O)N[C@@H](CO)C(=O)N[C@@H]([C@@H](C)O)C(=O)N[C@H](CC(C)C)C(=O)N[C@@H]([C@@H](C)CC)C(=O)O1` showed an IC50 in the assay on HCT-116 of 18 µM. Further, the result in the assay on HeLa was Active.

As to `CCCCCCC[C@@H]1CC(=O)N[C@H](CC(C)C)C(=O)N[C@@H](CO)C(=O)N[C@@H]([C@@H](C)O)C(=O)N[C@H](CC(C)C)C(=O)N[C@@H]([C@@H](C)CC)C(=O)O1`, in the assay with MCF7, the midpoint of inhibition, the IC50, lay at 4 µM. For the compound `CCCCCC/C=C\CCC[C@@H]1CC(=O)N[C@H](CC(C)C)C(=O)N[C@@H](CO)C(=O)N[C@@H]([C@@H](C)O)C(=O)N[C@H](CC(C)C)C(=O)N[C@@H]([C@@H](C)CC)C(=O)O1`, the IC50 in the assay with HCT-116 is 28 µM; in the assay with MCF7, 4 µM. Besides, the outcome with HeLa was Active. `CC[C@H](C)[C@@H]1NC(=O)[C@@H](CC(C)C)NC(=O)[C@H]([C@@H](C)O)NC(=O)[C@H](CO)NC(=O)[C@@H](CC(C)C)NC(=O)CCNC1=O` yielded an IC50 in the assay on HCT-116 above 1000 µM.

For `CCCCCCCCCC[C@@H]1CC(=O)N[C@H](CC(C)C)C(=O)N[C@@H](CO)C(=O)N[C@@H]([C@@H](C)O)C(=O)N[C@H](CC(C)C)C(=O)N[C@@H]([C@@H](C)CC)C(=O)O1`, in the assay with HCT-116, the half-maximal inhibitory concentration (IC50) stood at 32 µM.

As to `CCCCCCCCC[C@@H]1CC(=O)N[C@H](CC(C)C)C(=O)N[C@@H](CO)C(=O)N[C@@H]([C@@H](C)O)C(=O)N[C@H](CC(C)C)C(=O)N[C@@H]([C@@H](C)CC)C(=O)O1`, the IC50 in the assay with HCT-116 came to 22 µM; in the assay on MCF7, 3 µM.
